# pEC50: −log10 of the molar value.
# Test system: not listed separately
# Experiment: Eudismic ratio was measured
# Format: functional
# Conditions: not given
row,Structure (SMILES),ER
1,C[C@@H]1O[C@H](C[N+](C)(C)C)CC1=O [listing 1 of 2 here],3.1
2,C[C@@H]1O[C@H](C[N+](C)(C)C)CS1 [listing 1 of 2 here],170
3,C[C@H]1OC[C@@H](C[N+](C)(C)C)O1 [listing 1 of 2 here],59
4,C[C@@H]1O[C@H](C[N+](C)(C)C)CC1O (mixture of isomers),331
5,C[C@@H]1O[C@H](C[N+](C)(C)C)CS1 (mixture of isomers) [listing 1 of 2 here],170
6,CN1OC(C[N+](C)(C)C)CC1=O (racemic) [listing 1 of 2 here],2.5
7,C[C@@H]1O[C@H](C[N+](C)(C)C)CC1=O (racemic) [listing 1 of 2 here],3.1
8,C[C@H]1OC[C@@H](C[N+](C)(C)C)O1 (racemic) [listing 1 of 2 here],59
9,CN1OC(C[N+](C)(C)C)CC1=O (stereo in doubt; 4) [listing 1 of 2 here],2.5
10,C[C@@H]1O[C@H](C[N+](C)(C)C)C[C@H]1O [MUSCARINE],331

# Species on record: Rattus norvegicus
# Experiment: Muscarinic potency was measured in rat jejunum
# Format: functional
# Conditions: not given
row,Structure (SMILES),-Log EC50
1,C[C@@H]1O[C@H](C[N+](C)(C)C)CC1=O [listing 2 of 2 here],7.89
2,C=C1C[C@@H](C[N+](C)(C)C)O[C@H]1C,6.78
3,C[C@@H]1O[C@H](C[N+](C)(C)C)CS1 (mixture of isomers) [listing 2 of 2 here],7.55
4,C[C@H]1OC[C@@H](C[N+](C)(C)C)O1 (racemic) [listing 2 of 2 here],7.58
5,C[C@H]1CC[C@@H](C[N+](C)(C)C)O1 (racemic),6.19
6,CN1OC(C[N+](C)(C)C)CC1=O (racemic) [listing 2 of 2 here],7.13

# Same assay, conditions: Rattus norvegicus, Jejunum
row,Structure (SMILES),pEC50
1,C[C@H]1OC[C@@H](C[N+](C)(C)C)O1 [listing 2 of 2 here],7.58
2,C[C@H]1CC[C@@H](C[N+](C)(C)C)O1,6.19
3,C[C@@H]1O[C@H](C[N+](C)(C)C)CS1 [listing 2 of 2 here],7.55
4,C[C@@H]1O[C@H](C[N+](C)(C)C)CC1O (mixture of isomers),6.81
5,C[C@@H]1O[C@H](C[N+](C)(C)C)CC1=O (racemic) [listing 2 of 2 here],7.89
6,C=C1C[C@@H](C[N+](C)(C)C)O[C@H]1C (racemic),6.78
7,CN1OC(C[N+](C)(C)C)CC1=O (stereo in doubt; 4) [listing 2 of 2 here],7.13
8,C[C@@H]1O[C@H](C[N+](C)(C)C)C[C@H]1O [MUSCARINE],6.81

# Species on record: Cavia porcellus
# Experiment: Muscarinic potency was measured in guinea pig ileum
# Format: functional
# Conditions: not given
row,Structure (SMILES),-Log EC50
1,C[C@@H]1O[C@H](C[N+](C)(C)C)CC1=O [listing 2 of 2 here],9
2,C=C1C[C@@H](C[N+](C)(C)C)O[C@H]1C,7.38
3,C[C@@H]1O[C@H](C[N+](C)(C)C)CS1 (mixture of isomers) [listing 2 of 2 here],8.23
4,C[C@H]1OC[C@@H](C[N+](C)(C)C)O1 (racemic) [listing 2 of 2 here],8.38
5,C[C@H]1CC[C@@H](C[N+](C)(C)C)O1 (racemic),6.87
6,CN1OC(C[N+](C)(C)C)CC1=O (racemic) [listing 2 of 2 here],7.95

# Same assay, conditions: Cavia porcellus, Ileum
row,Structure (SMILES),pEC50
1,C[C@H]1OC[C@@H](C[N+](C)(C)C)O1 [listing 2 of 2 here],8.38
2,C[C@H]1CC[C@@H](C[N+](C)(C)C)O1,6.87
3,C[C@@H]1O[C@H](C[N+](C)(C)C)CS1 [listing 2 of 2 here],8.23
4,C[C@@H]1O[C@H](C[N+](C)(C)C)CC1O (mixture of isomers),7.50
5,C[C@@H]1O[C@H](C[N+](C)(C)C)CC1=O (racemic) [listing 2 of 2 here],9.00
6,C=C1C[C@@H](C[N+](C)(C)C)O[C@H]1C (racemic),7.38
7,CN1OC(C[N+](C)(C)C)CC1=O (stereo in doubt; 4) [listing 2 of 2 here],7.95
8,C[C@@H]1O[C@H](C[N+](C)(C)C)C[C@H]1O [MUSCARINE],7.50

# Species on record: Cavia porcellus
# Experiment: Muscarinic potency was measured in guinea pig atria
# Format: functional
# Conditions: not given
row,Structure (SMILES),-Log EC50
1,C[C@@H]1O[C@H](C[N+](C)(C)C)CC1=O [listing 2 of 2 here],8.62
2,C=C1C[C@@H](C[N+](C)(C)C)O[C@H]1C,6.1
3,C[C@@H]1O[C@H](C[N+](C)(C)C)CS1 (mixture of isomers) [listing 2 of 2 here],7.37
4,C[C@H]1OC[C@@H](C[N+](C)(C)C)O1 (racemic) [listing 2 of 2 here],8.02
5,C[C@H]1CC[C@@H](C[N+](C)(C)C)O1 (racemic),5.88
6,CN1OC(C[N+](C)(C)C)CC1=O (racemic) [listing 2 of 2 here],7.62

# Same assay, conditions: Cavia porcellus
row,Structure (SMILES),pEC50
1,C[C@H]1OC[C@@H](C[N+](C)(C)C)O1 [listing 2 of 2 here],8.02
2,C[C@H]1CC[C@@H](C[N+](C)(C)C)O1,5.88
3,C[C@@H]1O[C@H](C[N+](C)(C)C)CS1 [listing 2 of 2 here],7.37
4,C[C@@H]1O[C@H](C[N+](C)(C)C)CC1O (mixture of isomers),7.23
5,C[C@@H]1O[C@H](C[N+](C)(C)C)CC1=O (racemic) [listing 2 of 2 here],8.62
6,C=C1C[C@@H](C[N+](C)(C)C)O[C@H]1C (racemic),6.10
7,CN1OC(C[N+](C)(C)C)CC1=O (stereo in doubt; 4) [listing 2 of 2 here],7.62
8,C[C@@H]1O[C@H](C[N+](C)(C)C)C[C@H]1O [MUSCARINE],7.23

# Species on record: Rattus norvegicus
# Experiment: Muscarinic potency was measured in rat bladder
# Format: functional
# Conditions: not given
row,Structure (SMILES),-Log EC50
1,C[C@@H]1O[C@H](C[N+](C)(C)C)CC1=O [listing 2 of 2 here],7.28
2,C=C1C[C@@H](C[N+](C)(C)C)O[C@H]1C,6.13
3,C[C@@H]1O[C@H](C[N+](C)(C)C)CS1 (mixture of isomers) [listing 2 of 2 here],6.64
4,C[C@H]1OC[C@@H](C[N+](C)(C)C)O1 (racemic) [listing 2 of 2 here],6.91
5,C[C@H]1CC[C@@H](C[N+](C)(C)C)O1 (racemic),5.62
6,CN1OC(C[N+](C)(C)C)CC1=O (racemic) [listing 2 of 2 here],6.44

# Same assay, conditions: Rattus norvegicus
row,Structure (SMILES),pEC50
1,C[C@H]1OC[C@@H](C[N+](C)(C)C)O1 [listing 2 of 2 here],6.91
2,C[C@H]1CC[C@@H](C[N+](C)(C)C)O1,5.62
3,C[C@@H]1O[C@H](C[N+](C)(C)C)CS1 [listing 2 of 2 here],6.64
4,C[C@@H]1O[C@H](C[N+](C)(C)C)CC1O (mixture of isomers),6.24
5,C=C1C[C@@H](C[N+](C)(C)C)O[C@H]1C (racemic),6.13
6,CN1OC(C[N+](C)(C)C)CC1=O (stereo in doubt; 4) [listing 2 of 2 here],6.44
7,C[C@@H]1O[C@H](C[N+](C)(C)C)C[C@H]1O [MUSCARINE],6.24

# From ChEMBL document CHEMBL1126307, “Conformational studies of muscarone analogues: X-ray analysis and molecular mechanics calculations” (J Med Chem, 1992)
